From PMC5593639, “NSC30049 inhibits Chk1 pathway in 5-FU-resistant CRC bulk and stem cell populations” (Oncotarget, 2017)

Tests used:
[1] = system: CA2 CRC stem cell line; assay: Spheroid (sphere) formation assay; type: cell-based; conditions: Homo sapiens; drug alone, seventh day
Experimental: Live CA2 cells (100) were seeded in 384-well ultra-low attachment plates. Next, day cells were treated with different concentrations of NSC49L and 5-FU either alone or in combination. Cells were incubated for 7 days and the number of spheroids were counted in control and treated groups under an Olympus inverted microscope with a 10× magnification.

[2] = system: HCT116(p53−/−) cells; assay: MTT assay, IC50 of HU, HCT116(p53−/−); type: cell-based, human; conditions: HU combined with NSC49L, 72 h
Experimental: (§1) The survival of cells was determined by MTT (3-(4,5-Dimethylthiazol-2yl-)-2,5-diphenyl tetrazolium bromide) assay (ATCC, Manassas, VA, USA). In principle, the viable cell number is directly proportional to the purple formazan color of the reduced MTT dye, which can be quantitatively measured by spectrophotometry. Briefly, 1,500 cells were plated in quadruplets in 96-well flat-bottom tissue culture plates. After treatment with compounds for certain periods as described in respective figure legends, 10 μl of MTT reagent was added to each well and incubated at 37°C for 4 h to allow the formation of purple color crystals of formazan. In total, 100 μl of detergent solution was added to each well, and the reaction mixture was incubated in dark for 2–4 h at room temperature. The developed color density was then measured spectrophotometrically at 570 nm using the POLARstar Omega micro-plate reader (BMG Labtech, Inc., Cary, NC, USA).

[3] = system: LoVo cells; assay: Cell survival (MTT assay), LoVo; type: cell-based; conditions: Homo sapiens, drug alone, 48 h
Experimental: as §1

[4] = system: γH2AX(S139P)-foci in HCT-116 cells; assay: γH2AX(S139P)-foci IHC staining, HCT-116; type: cell-based, human; conditions: 24 h
[5] = system: human-derived CRC stem cell tumors; assay: Patient-derived tumor xenograft (PDTX) of CRC stem cell tumors; type: in vivo, female SCID mice; conditions: 50 mg/kg body weight NSC49L every day, 30 days
Experimental: With the pharmacokinetics analysis and MTD data in hand, we determined the efficacy of NSC49L and 5-FU alone and in combination for the growth of human-derived CRC stem cell tumors in vivo. CRC stem cells were isolated and characterized from the freshly resected human CRC tumor. One thousands of these CRC stem cells were injected subcutaneously into the right flank of the four 5-week old female SCID mice. After 20 days the first generation tumors (F0) of approximately 2,000 mm^3 in size were harvested. They were divided into four equal pieces and implanted under the skin of the female SCID mice for the growth of second generation tumors (F1) for testing the drug efficacy studies. We divided the F1 tumor bearing mice into four groups and treated them every day subcutaneously with drugs as follows: i) PBS control, (ii) 50 mg/kg body weight NSC49L, (iii) 20 mg/kg body weight 5-FU, and iv) 50 and 20 mg/kg body weight NSC49L and 5-FU, respectively, for 30 days. The treatment with drugs began after 10 days of tumor growth. The body weight and tumor volumes were recorded twice a weak. The experiment was terminated on the 32nd day.

[6] = system: FOLFOX-resistant-HCT116 cells; assay: Cell survival (MTT assay), FOLFOX-resistant-HCT116; type: cell-based; conditions: Homo sapiens, FOLFOX-resistant HCT-116, 48 h
Experimental: In some experiments, 5-FU, leucovorin and oxaliplatin (FOLFOX)-resistant-HCT-116 and FOLFOX-resistant-HT29 cells were used. These cells were obtained from Dr. Adhip P. Majumdar (John D. Dingell VA Medical Center, Detroit, MI). These cells were generated by exposure to clinically relevant doses and schedules. The exposing schedule was for 12 cycles; each cycle lasted for one week. Briefly, the cells were first exposed to FOLFOX (25 μM 5-FU and 0.625 μM oxaliplatin) for 72 hours. The surviving cells were then cultured in normal medium without the drugs for 4 to 5 days. This cycle was repeated 12 times. The surviving cells were then split and exposed to higher doses of FOLFOX (50 μM 5-FU + 1.25 μM oxaliplatin or 100 μM 5-FU + 2.5 μM oxaliplatin) for 2 to 3 days per week for approximately 4 weeks. […]
The survival of cells was determined by MTT (3-(4,5-Dimethylthiazol-2yl-)-2,5-diphenyl tetrazolium bromide) assay (ATCC, Manassas, VA, USA). In principle, the viable cell number is directly proportional to the purple formazan color of the reduced MTT dye, which can be quantitatively measured by spectrophotometry. […] The developed color density was then measured spectrophotometrically at 570 nm using the POLARstar Omega micro-plate reader (BMG Labtech, Inc., Cary, NC, USA).

[7] = system: LS174T cells; assay: Cell survival (MTT assay), LS174T; type: cell-based; conditions: Homo sapiens, drug alone, 48 h
Experimental: as §1

[8] = Maximum tolerated dose and pathological analysis of organs; type: in vivo, male SCID mice
Experimental: We have determined the MTD of NSC49L from male homozygous CB17 scid/scid (SCID) mice obtained from Tacomic Farms (Germantown, NY, USA). The mice were treated subcutaneously at 25, 50, and 75 mg/kg body weight for 5 consecutive days followed by observation for an additional 7 days. Every day body weight was recorded and behavioral changes were monitored in the treated versus control animals. After the 7th day animals were sacrificed and the organs from the mice treated at 75 mg/kg body weight were processed for pathological examination. Different organs were fixed in 10% buffered formalin, then sectioned and processed into paraffin blocks. Tissue sections were cut 4–5 μm thick and stained with hematoxylin and eosin. Histologic differences between control (A) and treated (B) mice were recorded and photomicrographs were taken with Olympus, BX41 microscope with attached camera.

[9] = system: γH2AX(S139P)-foci in HCoEpiC cells; assay: γH2AX(S139P)-foci IHC staining, HCoEpiC; type: cell-based, human; conditions: NSC49L alone or in combination with 5-FU, 24 h
[10] = system: HCT-116 cells; assay: Cell survival (MTT assay), HCT-116; type: cell-based, human; conditions: Homo sapiens, HCT-116, 48 h
Experimental: as §1

[11] = system: ALDH1, KLF4, Nanog, Oct4, Sox2, c-Myc mRNA in CA2 cells; assay: Stem cell marker and self-renewal gene mRNA levels by qRT-PCR; type: cell-based, human; conditions: 72 h
Experimental: Total RNA was isolated from control and treated cells with RNAzol reagent (Invitogen, Carlsbad, CA, USA). The expression of mRNA levels of stemness genes was determined by qRT-PCR using Bio-Rad CFX96 Real Time System C1000 Thermal Cycler. The primers used for amplification of mRNA levels of genes were from Celprogen, Inc., as shown here with their Gene Bank accession and catalog numbers: ALDHA1 (NM_000689, Cat. No. CepALDHA1-02), Klf4 (NM_004235, Cat No. CepKlf4-02), Nanog (NM_024865, Cat. No. CepNanog-02), Oct4 (NM_002701, Cat No. CepOct4-02), Sox2 (NM_003106, Cat. No. CepSox2-02), c-Myc (NM_002467, Cat. No. Cepc-Myc-02) and GAPDH (NM_002046, Cat. No. Cep-GAPDH-02).

Compound: ClC/C=C/C[N+]12CN3CN(CN(C3)C1)C2 [NSC49L]
- IC50 [1]: 4.8 µM
- IC50 of HU [2]: further decreased
- IC50 [3]: 4.2 ± 0.1 µM
- γH2AX(S139P)-foci ([4]; NSC49L alone): increased
- γH2AX(S139P)-foci ([4]; NSC49L in combination with 5-FU): further increased
- Growth of CRC stem cell tumors [5]: significant growth inhibition
- IC50 [6]: 5.4 µM
- IC50 [7]: 4.6 ± 0.8 µM
- Histologic sections of organs ([8]; 75 mg/kg body weight, bone marrow, brain, kidney, liver, lung, pancreas): no significant differences between control and treated mice
- Body weight, behavior, pathological abnormalities ([8]; 25, 50 and 75 mg/kg body weight, 5 consecutive days, 7 days observation, treated versus control): no change in body weight, behavior, or pathological abnormalities
- replication stress-mediated DNA damage (γH2AX(S139P)-foci) [9]: no effect
- IC50 ([10]; MTT assay, Figure 1B, three experiments): 3.9 µM
- IC50 ([10]; drug alone, MTT, Table 1, four estimations): 2.8 ± 0.5 µM
- mRNA levels of ALDH1, KLF4 and Nanog ([11]; NSC49L combined with 5-FU): further decreased
- mRNA levels of ALDH1, KLF4, Nanog, Oct4, Sox2 and c-Myc ([11]; drug alone, normalized with GAPDH): decreased
